Entries after “also recorded” stand apart in the source; their conditions may differ.
What was measured:
Type in all cases: in vivo, CD-1 mice
A. contortrix venom = experiment: Murine preincubation model of venom lethality, North American pit viper venom; settings: 2.5×LD50 A. contortrix venom preincubated with 60 μg of each drug, i.v., 6 h, n=5
Procedure: (§1) Thereafter, the same murine animal model was used to explore the efficacy of the same snake venom metalloproteinase and phospholipase A2 inhibiting drugs as solo and combination treatments against North American pit viper venoms. The intravenous median lethal dose (venom LD50) for C. atrox, C. scutulatus, S. miliariius and A. contortrix venoms was previously determined (3.79 μg, 0.17 μg, 4.87 μg and 4.99 μg per mouse, respectively). […] As described above, all experimental doses were prepared to a volume of 200 μl in PBS and incubated at 37° C. for 30 min prior to their intravenous injection via the tail vein. Animals were monitored for 6 h, and euthanized via rising concentrations of CO2 upon observation of previously defined humane end points that are predicators of lethality (e.g., seizure, pulmonary distress, paralysis, hemorrhage). Deaths, time of death, and survivors were recorded; where death/time of death represents the implementation of euthanasia based on defined humane end points.
(§2) These snake species were selected for their taxonomic diversity and clinical importance in the USA, namely: 1) Crotalus atrox (Western diamondback), which is found across the southwest USA and into Mexico and is thought to be the most common cause of snakebite envenoming in USA, 2) Crotalus scutulatus (Mojave rattlesnake), which is also found across the southwest USA and into Mexico, 3) Sistrurus miliarius (pygmy rattlesnake), which is found in the South-East USA, and 4) Agkistrodon contortrix (Eastern copperhead), which is found in central and eastern USA. […] The drug treatments consisted of: DMPS, marimastat, or varespladib as solo drug treatments, or a DMPS and varespladib combination, or a marimastat and varespladib combination.

C. atrox venom = experiment: as above; settings: 2.5×LD50 C. atrox venom preincubated with 60 μg of each drug, i.v., 6 h, n=5
Procedure: as §1, §2

C. scutulatus venom = experiment: as above; settings: 2.5×LD50 C. scutulatus venom preincubated with 60 μg of each drug, i.v., 6 h, n=5
Procedure: as §1, §2

Echis ocellatus venom = experiment: Murine preincubation (co-incubation) model of venom lethality, intravenous, with TAT ELISA; settings: 45 μg venom (2.5×LD50) preincubated 30 min at 37° C. with 60 μg of each drug, i.v., 6 h monitoring, n=5
Procedure: The intravenous median lethal dose (venom LD50) for E. ocellatus (Nigeria) of 17.85 μg per mouse was previously determined. Mice were challenged with 45 μg of E. ocellatus venom (2.5×the intravenous LD50 dose) in a refined version of the World Health Organization-recommended antivenom efficacy experiments. Groups of five male 18-22 g CD-1 mice (Charles River, UK) received experimental doses that consisted of either (a) venom only (2.5×LD50 dose), (b) venom and drug (60 μg) or (c) drug only. All experimental doses were prepared to a volume of 200 μl in PBS and incubated at 37° C. for 30 mins prior to their intravenous injection via the tail vein. Animals were monitored for 6 hours and euthanized upon observation of humane endpoints (seizure, pulmonary distress, paralysis, hemorrhage). Deaths, time of death, and survivors were recorded; where “deaths/time of death” represents the implementation of euthanasia based on the defined humane endpoints.
The same murine preincubation model was used to assess the efficacy of distinct toxin family inhibiting drugs in comparison with a drug combination. […] All experimental doses were prepared to a volume of 200 μl in PBS and incubated at 37° C. for 30 min prior to their intravenous injection via the tail vein. Animals were monitored for 6 h, and euthanized via rising concentrations of CO2 upon observation of previously defined humane end points that are predicators of lethality (e.g., seizure, pulmonary distress, paralysis, hemorrhage). Deaths, time of death, and survivors were recorded; where death/time of death represents the implementation of euthanasia based on defined humane end points.
Strong drug hits, those defined as inhibiting >80% of the venom activity in the previously described in vitro metalloproteinase assay (FIG. 1), were next progressed into murine preclinical efficacy studies, to assess their ability to prevent venom-induced lethality in vivo. We used an established in vivo model of envenoming to test the efficacy of the seven snake venom metalloproteinase toxin inhibitors identified. This model consisted of the preincubation of the test drug with venom, followed by intravenous injection of the mixture into groups of five male CD-1 mice (18-20 g) via the tail vein followed by 6 hour monitoring, and is based on principles laid out in the gold standard method of preclinical efficacy recommended by the World Health Organization.
We used an established in vivo model of envenoming^41,42 to test the efficacy of small molecule toxin inhibitors. […]

SMILES	protection against venom lethality (A. contortrix venom)	protection against venom lethality (C. atrox venom)	protection against venom lethality (C. scutulatus venom)	survival / protection against venom-induced lethality (Echis ocellatus venom)
CNC(=O)[C@@H](NC(=O)[C@H](CC(C)C)[C@H](O)C(=O)NO)C(C)(C)C [marimastat]	Neither drug provided protection	Neither drug provided protection	some limited protection	only one death; also recorded: remaining four survived
O=S(=O)(O)CC(S)CS (stereo not drawn) [DMPS, 2,3-dimercapto-1-propanesulfonic acid]	Neither drug provided protection	Neither drug provided protection	some limited protection	all animals surviving; also recorded: complete protection
CCc1c(C(=O)C(N)=O)c2c(OCC(=O)O)cccc2n1Cc1ccccc1 [varespladib]	survived for longer periods of time than the venom only controls	survived for longer periods of time than the venom only controls	survive the duration of the experiment	failed to prevent lethality over the full experimental time course

From patent publication US12285408B2, “Methods and compositions for the treatment of snake bite” (priority 2021, dated 2025)
